Laboratory results as given in patent publication US20250049791A1, “Synthesis of MEK7 Inhibitors and methods of Use Thereof” (Northwestern University, priority 2023, published 2025).

How the values were obtained:
MEK1/2 = assay: ScanEDGE competition binding, MEK1/2; details: ScanEDGE screen
Source text: (§1) The ScanEDGE assay, completed by DiscoverX (Eurofins) is a proprietary active site-directed competition binding assay. Compounds that bind the kinase active site prevent kinase binding to the immobilized ligand, reducing the amount of kinase captured on the solid support. Hits are identified by measuring the amount of kinase captured in experimental vs, control samples by a qPCR method that detects an associated DNA label. According to data provided by Eurofins, a typical hit at 5-10% of control signal in a 1 μM assay as shown above is generally associated with a KD in the range of 100-1,000 nM. Readings with greater than 35% of control signal correspond to exceeding large dissociation constants.

Jurkat and KOPTK1 = assay: Washout cytotoxicity experiment; format: cell-based; details: 18 hours with compound, washed, 30 hours
Protocol: T-cell cell lines Jurkat and KOPTK1 were plated in triplicates (20×10^4 cells per 96-well plate) and cultured with different concentrations of DK-2403 compound for 18 hours. Cells were washed twice to remove DK-2403 and incubated for 30 hours. Cell viability was measured (48 hours) using CellTiter-Glo luminescent cell viability assay.

FLT3 = target: T1, FLT3 (Homo sapiens, UniProt P36888); assay: ScanEDGE competition binding, FLT3; details: ScanEDGE screen
T1 construct: purchased DiscoverX (Eurofins)
T1 sequence (P36888 27-993): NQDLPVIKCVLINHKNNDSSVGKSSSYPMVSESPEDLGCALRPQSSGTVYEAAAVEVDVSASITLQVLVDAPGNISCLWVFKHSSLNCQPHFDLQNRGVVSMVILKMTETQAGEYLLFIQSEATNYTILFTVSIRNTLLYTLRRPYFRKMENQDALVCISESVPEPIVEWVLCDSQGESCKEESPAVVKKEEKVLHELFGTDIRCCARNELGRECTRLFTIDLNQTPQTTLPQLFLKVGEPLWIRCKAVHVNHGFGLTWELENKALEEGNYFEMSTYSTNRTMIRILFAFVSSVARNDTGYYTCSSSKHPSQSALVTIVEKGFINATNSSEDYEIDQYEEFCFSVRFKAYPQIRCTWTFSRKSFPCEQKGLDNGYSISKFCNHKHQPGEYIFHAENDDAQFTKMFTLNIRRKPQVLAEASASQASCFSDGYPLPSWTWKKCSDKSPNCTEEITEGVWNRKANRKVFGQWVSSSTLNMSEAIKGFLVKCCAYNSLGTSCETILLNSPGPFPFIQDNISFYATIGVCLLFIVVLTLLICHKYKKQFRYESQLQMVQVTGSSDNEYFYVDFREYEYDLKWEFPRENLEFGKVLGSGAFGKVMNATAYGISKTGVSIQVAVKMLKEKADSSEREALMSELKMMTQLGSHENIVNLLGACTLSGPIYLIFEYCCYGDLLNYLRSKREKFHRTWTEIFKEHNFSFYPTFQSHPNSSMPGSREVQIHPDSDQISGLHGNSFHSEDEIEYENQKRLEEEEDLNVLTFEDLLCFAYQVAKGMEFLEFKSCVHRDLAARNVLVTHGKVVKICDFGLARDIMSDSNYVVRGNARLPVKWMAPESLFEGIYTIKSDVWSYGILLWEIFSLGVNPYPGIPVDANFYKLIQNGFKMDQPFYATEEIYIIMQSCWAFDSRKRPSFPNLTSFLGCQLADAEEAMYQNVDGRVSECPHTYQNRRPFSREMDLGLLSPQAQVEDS
Source text: as §1

[1] = test system: JNK and ATF2 phosphorylation in T-ALL cells; assay: Immunoblot analysis of JNK and ATF2 phosphorylation; format: cell-based
Protocol: Cells were lysed with SDS lysis buffer containing (10 mM Tris pH 7.4 containing 1% SDS and 1 mM PMSF) and supplemented with Halt Protease and Phosphatase Inhibitor Cocktail (ThermoFisher) after 24 h of incubation. Protein lysates were electrophoresed onto SDS PAGE gel and transferred to the PVDF membrane using the iBLOT system. Antibodies phospho-SAPK/JNK (clone 81E11) (#4668) and SAPK/JNK (#9252) were used at 1:5000 dilution. Secondary antibodies cross-linked with HRP (anti-rabbit IgG #7074 and anti-mouse IgG #7076) were used for respective primary antibodies at concentrations 1:20,000. Protein detection was performed using West Femto Maximum Sensitivity Substrate (ThermoFisher) and Amersham Hyperfilm ECL (GE).

activity on MEK1/2 (MEK1/2): no appreciable activity | engagement of FLT3 (FLT3): does not engage
Compound: O=C(CCl)Nc1cccc(Oc2cc(NCc3ccccc3)ncn2)c1 [Compound 25, N-(3-((6-(benzylamino)pyrimidin-4-yl)oxy)phenyl)-2-chloroacetamide]
cytotoxicity after washout (Jurkat and KOPTK1): resistant to washout | concentration that potently attenuated JNK and ATF2 phosphorylation ([1]; 24 h incubation): 5 to 10 µM | effect on phosphorylation of JNK and ATF2 ([1]; western blot, dose-response): decreased phosphorylation
